Where only a bound is given, the exact number is not on record here.

Complement factor D, sequence (P00746 whole entry): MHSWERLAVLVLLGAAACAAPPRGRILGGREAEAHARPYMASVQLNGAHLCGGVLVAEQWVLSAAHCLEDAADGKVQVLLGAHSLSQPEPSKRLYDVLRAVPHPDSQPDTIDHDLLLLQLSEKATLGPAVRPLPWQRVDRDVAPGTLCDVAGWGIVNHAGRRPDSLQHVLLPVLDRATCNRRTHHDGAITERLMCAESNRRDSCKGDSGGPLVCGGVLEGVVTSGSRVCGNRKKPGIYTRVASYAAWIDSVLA

The assay concerns the target Complement factor D (Homo sapiens, UniProt P00746). Put plainly: Human Factor D Assay. As for the experimental part:
Human Factor D (purified from human serum, Complement Technology, Inc.) at 80 nM final concentration is incubated with test compound at various concentrations for 5 min at room temperature in 50 mM Tris, 1M NaCl, pH 7.5. A synthetic substrate Z-L-Lys-SBzl and DTNB (Ellman's reagent) are added to final concentrations of 100 μM each. Absorbance at 405 nm (A405) is recorded at 30 second intervals for 30 min using a microplate spectrophotometer. IC50 values are calculated by nonlinear regression of complement Factor D reaction rates as a function of test compound concentration.
The compound `CC(=O)c1cn(CC(=O)N2C[C@H]3C[C@H]3[C@H]2C(=O)Nc2nc(C(F)(F)F)ccc2C)c2c(C)cc(-c3cnc4cc(C)nn4c3)cc12` [US20250197403, Compound 1] returned an IC50 of under 1 µM.

For `CC(=O)c1cn(CC(=O)N2[C@H](C(=O)Nc3nc(Br)ccc3C3CC3)C[C@@]3(C)C[C@@H]23)c2c(C)cc(-c3cnc(C)nc3)cc12` [US20250197403, Compound 9], the concentration for half-maximal inhibition (IC50) is under 1 µM.

The compound `CC(=O)c1cn(CC(=O)N2[C@H](C(=O)Nc3cncc(C(F)(F)F)n3)C[C@@]3(C)C[C@@H]23)c2c(C)cc(-c3cnc4cc(C)nn4c3)cc12` [US20250197403, Compound 48] yielded a 50% inhibitory concentration (IC50) of under 1 µM.

In turn, `COCc1ccc(Br)nc1NC(=O)[C@@H]1C[C@@]2(C)C[C@H]2N1C(=O)Cn1cc(C(C)=O)c2cc(-c3ccc4nc(C)nn4c3)cc(C)c21` [US20250197403, Compound 62] displayed an IC50 of under 1 µM.

Regarding `CC(=O)c1cn(CC(=O)N2[C@H](C(=O)Nc3nc(C(F)(F)F)ccc3C)C[C@@]3(C)C[C@@H]23)c2c(C)cc(-c3cnc4sc(C)nc4c3)cc12` [US20250197403, Compound 70], the 50% inhibitory concentration (IC50) is under 1 µM.

In turn, `CC(=O)c1cn(CC(=O)N2C[C@@](F)(CF)C[C@H]2C(=O)Nc2nc(C(F)(F)F)ccc2Cl)c2c(C)nc(-c3cnc4cc(C)nn4c3)cc12` [US20250197403, Compound 92] yielded an IC50 of under 1 µM.
